Source: patent publication EP0597004B1, “THE USE OF DIOXAPYRROLOMYCIN AS AN ANTIPARASITIC AGENT AND COMPOSITIONS USEFUL THEREFOR” (PHARMACIA & UPJOHN COMPANY, priority 1991, dated 1993)
Several values for one entry are separate records, joined by “and”; a condition that tells them apart may be missing. Identical values can stand only once. Counter-ions that a name gives are not always drawn. Like-named read-outs stand apart in the source and are kept apart here.

Tests used:
[1] = tested on: Haemonchus contortus; assay: Haemonchus contortus / jird assay (clearance from experimentally infected jirds); format: in vivo; details: necropsy day 13 PI; for Percentage Clearance Susceptible: susceptible strain; for Percentage Clearance H. contortus: purity ∼100%
Protocol: (§1) This in vivo assay utilizes jirds infected with two important target parasites of ruminants, H. contortus and T. colubriformis (anthelmintic-sensitive or -resistant worms can be used). Initially, activity is assessed only against H. contortus as described in G.A. Conder et. al., J. Parasitol. 76:168-170 (1990), while follow-up studies examine activity against both species of parasites using the techniques outlined in G.A. Conder et al., J. Parsitol. 77:168-170 (1991).

[2] = tested on: levamisole/benzimidazole-resistant Haemonchus contortus; assay: Jird assay with levamisole/benzimidazole-resistant strain (cross-resistance); format: in vivo; details: jirds, necropsy day 13 PI
Excerpt: (§2) Having shown potent activity against H. contortus in sheep, dioxapyrrolomycin was examined for cross-resistance to the three major classes of broad-spectrum anthelmintics (ivermectin, levamisole, and benzimidazoles) using jirds infected with resistant strains of H. contortus. […] In vitro, the dioxapyrrolomycin dose required to affect a closantel-resistant strain of H. contortus is approximately seventeen times that required for the susceptible strain.
as §1

[3] = tested on: ivermectin-resistant Haemonchus contortus; assay: Jird assay with ivermectin-resistant strain (cross-resistance); format: in vivo; details: jirds, necropsy day 13 PI
Excerpt: as §2, §1

[4] = tested on: Caenorhabditis elegans; assay: Caenorhabditis elegans in vitro assay; details: free-living nematode
Excerpt: The free-living nematode C. elegans in vitro assay has been described extensively in the literature, for example, K.G. Simpkin and G.C. Coles, J. Chem. Tech. Biotechnol., 31:66-69 (1981).
Dioxapyrrolomycin is active in the C. elegans assay at 0.825 ppm.

[5] = tested on: Trichostrongylus colubriformis; assay: Trichostrongylus colubriformis / jird assay (clearance from experimentally infected jirds); format: in vivo; details: necropsy day 13 PI, purity ∼100%
Protocol: as §1

[6] = tested on: Haemonchus contortus; assay: Haemonchus contortus / sheep assay (clearance from monospecifically infected lambs); format: in vivo; details: necropsy day 42 PI
Protocol: Purpose bred, helminth-free lambs are procured. Upon arrival, the lambs are treated with ivermectin (0.2 mg/kg, subcutaneously), vaccinated for sore mouth, and placed in a single, community pen. Three weeks later each lamb is treated with levamisole hydrochloride (8.0 mg/kg per os). Two weeks after treatment with levamisole, all lambs are inoculated per os with ∼ 7,500 infective larvae of H. contortus. Rectal fecal samples are taken from each lamb 1 to 3 days prior to infection and these are examined using the double centrifugation technique to verify that the animals are free of trichostrongyles prior to infection. […] Remaining lambs are treated per os on day 35 PI; 4-5 animals receive vehicle only. Prior to administration, test materials are prepared in a manner suitable for the substance being examined. All lambs are monitored for toxic signs following treatment. Lambs are killed 7 days after treatment (day 42 PI), and the abomasum is ligated and removed from each animal. Each abomasum is opened longitudinally and the contents rinsed into an 80 mesh sieve. Sieve contents are collected in individual containers and fixed in formol-alcohol. Later each sample is transferred to a 1,000 ml graduated cylinder and the volume brought to 400 - 1000 ml with tap water. The total number of worms in a 10% aliquot is determined. If no worms are found in the 10% aliquot, the entire sample is examined. Total worm number/lamb and percentage clearance for each treatment are calculated. Percentage clearance is determined according to the following formula: Percentage clearance = [(Mean number of worms recovered from vehicle control lambs - number of worms recovered from treated lamb)/mean number of worms recovered from vehicle control lambs] x 100.

[7] = tested on: closantel-resistant strain of H. contortus; assay: In vitro cross-resistance with closantel-resistant strain; parameters: species or system Haemonchus contortus; details: closantel-resistant vs susceptible H. contortus
Excerpt: as §2

[8] = mice, cited from earlier work
[9] = 0.012 mg/jird per os on day 10 PI
[10] = 0.11 mg/jird per os on day 10 PI
[11] = 0.11 mg/jird per os day 10 PI, purity 95%

Compound: CCCSc1ccc2nc(NC(=O)OC)[nH]c2c1 [Albendazole, reference compound]
- Percentage Clearance Susceptible ([1]; 0.075 mg/jird per os day 10 PI): ∼95.0%
- Percentage Clearance Levamisole/Benzimidazole Resistant ([2]; 0.075 mg/jird per os day 10 PI): 36.2%

Compound: Ivermectin
- Percentage Clearance Susceptible ([1]; 0.005 mg/jird per os day 10 PI): ∼95.0%
- Percentage Clearance Levamisole/Benzimidazole Resistant ([2]; 0.005 mg/jird per os day 10 PI): 98.6%
- Percentage Clearance Ivermectin Resistant ([3]; 0.005 mg/jird per os day 10 PI): 18.7%

Compound: O=[N+]([O-])c1c([C@H]2OCOc3c(Cl)cc(Cl)cc32)[nH]c(Cl)c1Cl [Dioxapyrrolomycin, dioxapyrrolomycin]
- active in the C. elegans in vitro assay at [4]: 0.825 ppm
- Percentage Clearance H. contortus [1, 9]: 45.8%
- Percentage Clearance H. contortus ([1]; 0.037 mg/jird (= 0.925 mg/kg) per os on day 10 PI): 96.4%
- Percentage Clearance H. contortus [1, 10]: 100%
- Percentage Clearance Susceptible [1, 11]: 95.8%
- Percentage Clearance T. colubriformis [5, 9]: 48.8%
- Percentage Clearance T. colubriformis ([5]; 0.037 mg/jird per os on day 10 PI): 17.2%
- Percentage Clearance T. colubriformis [5, 10]: 0%
- Percentage Clearance T. colubriformis ([5]; 0.33 mg/jird (= 8.25 mg/kg) per os on day 10 PI): 41.5%
- Percentage Clearance ([6]; 0.78 mg/kg per os on day 35 PI): 44.0%
- Percentage Clearance ([6]; 1.56 mg/kg per os on day 35 PI): 92.2%
- Percentage Clearance ([6]; 3.125 mg/kg per os on day 35 PI, 3.125 mg/kg): 99.7% and 99.9%
- Percentage Clearance ([6]; 6.25 mg/kg per os on day 35 PI): 99.9%
- Percentage Clearance ([6]; 12.5 mg/kg per os on day 35 PI): 100%
- Percentage Clearance Levamisole/Benzimidazole Resistant [2, 11]: 98.6%
- Percentage Clearance Ivermectin Resistant [3, 11]: 92.7%
- dose required to affect a closantel-resistant strain relative to that required for the susceptible strain [7]: approximately seventeen
- LD50 ([8]; ip): 125 to 250 mg/kg
- LD50 ([8]; po): 13 mg/kg

Compound: c1ccc([C@H]2CN3CCSC3=N2)cc1 [Levamisole hydrochloride]
- Percentage Clearance Susceptible ([1]; 0.4 mg/jird per os day 10 PI): ∼95.0%
- Percentage Clearance Levamisole/Benzimidazole Resistant ([2]; 0.4 mg/jird per os day 10 PI): 51.7%
- Percentage Clearance Ivermectin Resistant ([3]; 0.4 mg/jird per os day 10 PI): 96.4%
